Data on 24 compounds can be found in patent US20250179000A1 (Sanford Burnham Prebys Medical Discovery Institute, priority 2021, published 2025).

One may read the EC50 as the concentration giving half of the maximal effect.

For one assay, the target named is T1, Rat mGlu3 (Rattus norvegicus, UniProt P31422).
T1 construct: expressed in transfected cells; host or cells: HEK-293 co-expressing GIRK channels
Briefly: mGlu receptor in vitro assay (thallium flux through GIRK channels / calcium assay), rat mGlu3. In kind it is cell-based. The note with it: PAM potency with EC20 glutamate. As for the experimental part:
(§1) Human Embryonic Kidney (HEK-293) cell lines co-expressing rat mGlu receptors 2, 3, 4, 6, 7 or 8 and G protein-coupled inwardly-rectifying potassium (GIRK) channels were grown in Growth Media containing 45% DMEM, 45% F-12, 10% FBS, 20 mM HEPES, 2 mM L-glutamine, antibiotic/antimycotic, non-essential amino acids, 700 μg/mL G418, and 0.6 μg/ml puromycin at 37° C. in the presence of 5% CO2. […] All cell culture reagents were purchased from Invitrogen Corp. (Carlsbad, CA) unless otherwise noted. Calcium assays were used to assess activity of compounds at mGlu1 and mGlu5, as previously described in Engers et al (J. Med. Chem. 2009, 52, 4115-4118). Calcium assays at mGlu3 were performed as described for mGlu5 with the exception that TREx293 mGlu3 Gα15 cells were treated with tetracycline at 20 ng/mL for 20 h prior to assay.
(§2) Compound activity at the group II (mGlu2 and mGlu3) and group III (mGlu4, mGlu6, mGlu7, and mGlu8) was assessed using thallium flux through GIRK channels, a method that has been described in detail. Briefly, cells were plated into 384-well, black-walled, clear-bottomed poly-D-lysine-coated plates at a density of 15,000 cells/20 μL/well in DMEM containing 10% dialyzed FBS, 20 mM HEPES, and 100 units/mL penicillin/streptomycin (assay media). Plated cells were incubated overnight at 37° C. in the presence of 5% CO2. The following day, the medium was exchanged from the cells to assay buffer [Hanks' balanced salt solution (Invitrogen) containing 20 mM HEPES, pH 7.3] using an ELX405 microplate washer (BioTek), leaving 20 μL/well, followed by the addition of 20 μL/well FluoZin2-AM (330 nM final concentration) indicator dye (Invitrogen; prepared as a stock in DMSO and mixed in a 1:1 ratio with Pluronic acid F-127) in assay buffer. Cells were incubated for 1 h at room temperature, and the dye exchanged to assay buffer using an ELX405, leaving 20 μL/well. Test compounds were diluted to 2 times their final desired concentration in assay buffer (0.3% DMSO final concentration). Agonists were diluted in thallium buffer [125 mM sodium bicarbonate (added fresh the morning of the experiment), 1 mM magnesium sulfate, 1.8 mM calcium sulfate, 5 mM glucose, 12 mM thallium sulfate, and 10 mM HEPES, pH 7.3] at 5 times the final concentration to be assayed. Cell plates and compound plates were loaded onto a kinetic imaging plate reader (FDSS 6000 or 7000; Hamamatsu Corporation, Bridgewater, NJ). Appropriate baseline readings were taken (10 images at 1 Hz; excitation, 470±20 nm; emission, 540±30 nm) and test compounds were added in a 20 μL volume and incubated for approximately 2.5 min before the addition of 10 μL of thallium buffer with or without agonist. After the addition of agonist, data were collected for approximately an additional 2.5 min. Data were analyzed using Excel (Microsoft Corp, Redmond, WA). The slope of the fluorescence increase beginning 5 s after thallium/agonist addition and ending 15 s after thallium/agonist addition was calculated, corrected to vehicle and maximal agonist control slope values, and plotted in using either XLfit (ID Business Solutions Ltd) or Prism software (GraphPad Software, San Diego, CA) to generate concentration-response curves. Potencies were calculated from fits using a four-point parameter logistic equation. For concentration-response curve experiments, compounds were serially diluted 1:3 into 10-point concentration response curves and were transferred to daughter plates using an Echo acoustic plate reformatter (Labcyte, Sunnyvale, CA). Test compounds were applied and followed by EC20 concentrations of glutamate.

A further assay deals with T2, Rat mGlu2 (Rattus norvegicus, UniProt P31421).
T2 construct: expressed in transfected cells; host or cells: HEK-293 co-expressing GIRK channels
T2 sequence (P31421 19-872): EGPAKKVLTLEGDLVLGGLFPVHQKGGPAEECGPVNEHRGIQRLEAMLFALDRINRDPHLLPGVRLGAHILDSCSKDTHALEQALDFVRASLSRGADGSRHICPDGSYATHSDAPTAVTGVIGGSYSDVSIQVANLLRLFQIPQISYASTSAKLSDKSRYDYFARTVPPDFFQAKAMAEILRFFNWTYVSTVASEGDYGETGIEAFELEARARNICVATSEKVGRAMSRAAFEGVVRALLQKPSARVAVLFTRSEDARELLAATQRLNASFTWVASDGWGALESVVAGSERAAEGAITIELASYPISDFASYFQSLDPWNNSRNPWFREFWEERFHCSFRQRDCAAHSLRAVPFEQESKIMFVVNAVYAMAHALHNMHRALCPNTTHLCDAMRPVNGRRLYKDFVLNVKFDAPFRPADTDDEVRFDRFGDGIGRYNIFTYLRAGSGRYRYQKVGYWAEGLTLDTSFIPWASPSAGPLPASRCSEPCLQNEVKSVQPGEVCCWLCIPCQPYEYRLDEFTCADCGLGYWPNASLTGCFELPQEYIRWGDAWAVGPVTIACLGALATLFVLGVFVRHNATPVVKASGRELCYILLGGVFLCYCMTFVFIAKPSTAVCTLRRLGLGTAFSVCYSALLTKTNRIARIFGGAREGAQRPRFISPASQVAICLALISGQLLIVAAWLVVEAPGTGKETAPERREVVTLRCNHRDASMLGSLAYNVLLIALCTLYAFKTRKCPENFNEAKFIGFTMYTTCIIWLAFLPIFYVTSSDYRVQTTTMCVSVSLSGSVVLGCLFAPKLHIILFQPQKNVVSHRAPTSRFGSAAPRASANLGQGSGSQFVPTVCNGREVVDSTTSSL
Briefly: mGlu receptor in vitro assay, thallium flux through GIRK channels, rat mGlu2. Format: cell-based. The note with it: PAM potency with EC20 glutamate. As for the experimental part:
as §1, §2

T1 sequence (P31422 23-879): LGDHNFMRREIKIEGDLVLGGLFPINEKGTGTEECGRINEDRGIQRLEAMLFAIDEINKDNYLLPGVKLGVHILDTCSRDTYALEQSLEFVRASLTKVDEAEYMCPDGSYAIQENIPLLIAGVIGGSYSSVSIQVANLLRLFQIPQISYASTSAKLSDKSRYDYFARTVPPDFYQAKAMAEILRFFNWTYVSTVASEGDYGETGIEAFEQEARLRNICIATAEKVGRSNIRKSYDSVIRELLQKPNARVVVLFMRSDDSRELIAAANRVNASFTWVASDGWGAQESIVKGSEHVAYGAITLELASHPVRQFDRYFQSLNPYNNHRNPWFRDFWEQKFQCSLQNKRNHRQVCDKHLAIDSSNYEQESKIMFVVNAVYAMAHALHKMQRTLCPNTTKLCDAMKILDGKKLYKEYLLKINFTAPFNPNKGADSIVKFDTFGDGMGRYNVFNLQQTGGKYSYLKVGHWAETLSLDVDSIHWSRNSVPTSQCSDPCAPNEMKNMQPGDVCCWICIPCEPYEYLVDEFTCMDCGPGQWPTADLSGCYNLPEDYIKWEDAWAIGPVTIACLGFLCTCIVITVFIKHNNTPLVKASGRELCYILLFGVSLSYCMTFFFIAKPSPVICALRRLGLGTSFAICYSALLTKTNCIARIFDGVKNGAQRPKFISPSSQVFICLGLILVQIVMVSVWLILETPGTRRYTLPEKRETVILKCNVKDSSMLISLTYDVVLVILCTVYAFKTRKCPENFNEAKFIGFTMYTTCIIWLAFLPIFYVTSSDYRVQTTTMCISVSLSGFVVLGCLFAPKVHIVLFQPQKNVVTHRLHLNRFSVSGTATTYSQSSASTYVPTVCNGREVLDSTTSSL

Turning to `Cc1c(OCc2ccc(-c3cccc(C(=O)O)c3)nn2)ccc(C(=O)CC(C)(C)C)c1O` [compound 119, 3-(6-((4-(3,3-Dimethylbutanoyl)-3-hydroxy-2-methylphenoxy)methyl)pyridazin-3-yl)benzoic acid], the EC50 was 0.616 µM on Rat mGlu3 and 0.916 µM on Rat mGlu2.
The matching figures for `CCCC(=O)c1ccc(OCc2cnc(-c3cccc(C(=O)O)c3)cn2)c(C)c1O` [compound 118, 3-(5-((4-Butyryl-3-hydroxy-2-methylphenoxy)methyl)pyrazin-2-yl)benzoic acid]: 1.02 µM and 0.482 µM.
The matching figures for `CCCC(=O)c1ccc(OCCS(=O)(=O)CCOc2ccc(C(=O)O)c(Cl)c2)c(C)c1O` [Example 37, 4-(2-{[2-(4-Butanoyl-3-hydroxy-2-methylphenoxy)ethyl]sulfonyl}ethoxy)-2-chlorobenzoic acid]: greater than 30 µM and greater than 10 µM.
`Cc1c(OCc2cccc(-c3cccc(C(=O)O)c3)c2)ccc(C(=O)Cc2ccccc2)c1O` [compound 161, 3′-((3-Hydroxy-2-methyl-4-(2-phenylacetyl)phenoxy)methyl)-[1,1′-biphenyl]-3-carboxylic acid]: the EC50 was determined as 1.03 µM on Rat mGlu3 and 0.2 µM on Rat mGlu2.
The corresponding values for `CCCC(=O)c1ccc(OCCCCCOc2ccc(F)c(C(=O)O)c2)c(C)c1O` [Example 48, 5-[5-(4-Butanoyl-3-hydroxy-2-methylphenoxy)pentyloxy]-2-fluorobenzoic acid] are greater than 10 µM and 0.039 µM.
The corresponding values for `Cc1c(OCc2cnc(-c3cccc(C(=O)NS(C)(=O)=O)c3)cn2)ccc(C(=O)CC(C)(C)C)c1O` [compound 126, 3-(5-((4-(3,3-Dimethylbutanoyl)-3-hydroxy-2-methylphenoxy)methyl)pyrazin-2-yl)-N-(methylsulfonyl)benzamide] are 2.14 µM and greater than 10 µM.
The corresponding values for `Cc1c(OCc2cnc(-c3ccc(C(=O)O)c(Cl)c3)cn2)ccc(C(=O)CC(C)(C)C)c1O` [compound 106, 4-(5-{[4-(3,3-Dimethylbutanoyl)-3-hydroxy-2-methylphenoxy]methyl}pyrazin-2-yl)-2-chlorobenzoic acid] are 0.523 µM and 0.535 µM.
For `CCCC(=O)c1ccc(OCc2cnc(-c3ccc(C(=O)O)c(Cl)c3)cn2)c(C)c1O` [compound 107, 4-{5-[(4-Butanoyl-3-hydroxy-2-methylphenoxy)methyl]pyrazin-2-yl}-2-chlorobenzoic acid], the EC50 at Rat mGlu3 came out at 2.14 µM; at Rat mGlu2, 0.254 µM.
The matching figures for `Cc1c(Oc2cccc(C(=O)O)c2)ccc(C(=O)CC(C)(C)C)c1O` [compound 97, 3-[4-(3,3-Dimethylbutanoyl)-3-hydroxy-2-methylphenoxy]benzoic acid]: greater than 10 µM and 1.39 µM.
The corresponding values for `Cc1c(OCc2cnc(-c3cccc(C(=O)O)c3)cn2)ccc(C(=O)C2CC2)c1O` [compound 70, 3-(5-((4-(Cyclopropanecarbonyl)-3-hydroxy-2-methylphenoxy)methyl)pyrazin-2-yl)benzoic acid] are 2.55 µM and 0.824 µM.
`CCCC(=O)c1ccc(OC/C=C/COc2ccc(C(=O)O)cc2OC)c(C)c1O` [Example 6, (E)-4-((4-(4-Butyryl-3-hydroxy-2-methylphenoxy)but-2-en-1-yl)oxy)-3-methoxybenzoic acid]: the results for the EC50 at Rat mGlu3 and on Rat mGlu2 were 2.59 µM and 0.004 µM, respectively.
The matching figures for `Cc1c(OCCCCNc2cccc(C(=O)O)c2)ccc(C(=O)CC(C)(C)C)c1O` [compound 85, 3-((4-(4-(3,3-Dimethylbutanoyl)-3-hydroxy-2-methylphenoxy)butyl)amino)benzoic acid]: 0.81 µM and 0.128 µM.
The corresponding values for `Cc1c(OCc2cnc(-c3cccc(C(=O)O)c3)cn2)ccc(C(=O)c2ccccc2)c1O` [compound 67, 3-(5-((4-Benzoyl-3-hydroxy-2-methylphenoxy)methyl)pyrazin-2-yl)benzoic acid] are 0.625 µM and 1.8 µM.
The matching figures for `Cc1c(OCc2cccc(-c3cccc(S(N)(=O)=O)c3)c2)ccc(C(=O)CC(C)(C)C)c1O` [Example 163, 3′-((4-(3,3-Dimethylbutanoyl)-3-hydroxy-2-methylphenoxy)methyl)-[1,1′-biphenyl]-3-sulfonamide]: greater than 30 µM and 1.36 µM.
For the compound `CCCCC(=O)c1ccc(OCCCCCOc2cccc(C(=O)O)c2C)c(C)c1O` [Example 49, 3-[5-(3Hydroxy-2-methyl-4-pentanoylphenoxy)pentyloxy]-2-methylbenzoic acid], the EC50 was greater than 10 µM on Rat mGlu3 and 0.426 µM at Rat mGlu2.
The corresponding values for `Cc1c(OCc2cnc(-c3cccc(-c4noc(=S)[nH]4)c3)cn2)ccc(C(=O)CC(C)(C)C)c1O` [compound 123, 1-(2-Hydroxy-3-methyl-4-((5-(3-(5-thioxo-4,5-dihydro-1,2,4-oxadiazol-3-yl)phenyl)pyrazin-2-yl)methoxy)phenyl)-3,3-dimethylbutan-1-one] are 2.64 µM and 2.52 µM.
The corresponding values for `Cc1c(OCc2cnc(-c3cccc(-c4nn[nH]n4)c3)cn2)ccc(C(=O)CC(C)(C)C)c1O` [compound 122, 1-(4-((5-(3-(2H-Tetrazol-5-yl)phenyl)pyrazin-2-yl)methoxy)-2-hydroxy-3-methylphenyl)-3,3-dimethylbutan-1-one] are 0.282 µM and 0.539 µM.
The matching figures for `Cc1c(SCCCCOc2cccc(C(=O)O)c2)ccc(C(=O)CC(C)(C)C)c1O` [compound 83]: 3.29 µM and 0.549 µM.
`Cc1c(OCc2cncc(-c3cccc(C(=O)O)c3)n2)ccc(C(=O)CC(C)(C)C)c1O` [compound 112, 3-(6-((4-(3,3-Dimethylbutanoyl)-3-hydroxy-2-methylphenoxy)methyl)pyrazin-2-yl)benzoic acid]: the concentration giving a half-maximal response (EC50) was 0.281 µM at Rat mGlu3 and 0.217 µM at Rat mGlu2.
Turning to `Cc1c(OCc2cccc(-c3cccc(C(=O)O)c3)c2)ccc(C(=O)C2CC2)c1O` [compound 68, 3′-((4-(Cyclopropanecarbonyl)-3-hydroxy-2-methylphenoxy)methyl)-[1,1′-biphenyl]-3-carboxylic acid], the EC50 came to 3.73 µM on Rat mGlu3 and 0.186 µM at Rat mGlu2.
The corresponding values for `CCCC(=O)c1ccc(OCOc2cccc(C(=O)O)c2C)c(C)c1O` [compound 95, 3-[(4-Butanoyl-3-hydroxy-2-methylphenoxy)methoxy]-2-methylbenzoic acid] are greater than 30 µM and 0.663 µM.
The corresponding values for `COc1ccc(C(=O)O)cc1OCCOCCOc1ccc(C(=O)CC(C)(C)C)c(O)c1C` [Example 1, 3-(2-(2-(4-(3,3-Dimethylbutanoyl)-3-hydroxy-2-methylphenoxy)ethoxy)ethoxy)-4-methoxybenzoic acid] are 0.052 µM and 0.018 µM.
The matching figures for `COc1ccc(C(=O)O)cc1OCCOc1ccc(C(=O)CC(C)(C)C)c(O)c1C` [compound 93, 3-{2-[4-(3,3-Dimethylbutanoyl)-3-hydroxy-2-methylphenoxy]ethoxy}-4-methoxybenzoic acid]: 1.22 µM and 0.207 µM.
Regarding `Cc1c(OCc2cnc(-c3cccc(NC(=O)NS(C)(=O)=O)c3)cn2)ccc(C(=O)CC(C)(C)C)c1O` [compound 89, N-((3-(5-((4-(3,3-Dimethylbutanoyl)-3-hydroxy-2-methylphenoxy)methyl)pyrazin-2-yl)phenyl)carbamoyl)methanesulfonamide], the EC50 on Rat mGlu3 is 4.67 µM; at Rat mGlu2, 2.38 µM.
